Test results from US20240158348A1, “HERBICIDAL CYCLIC AMIDES N-SUBSTITUTED WITH A HALOALKYLSULFONYLANILIDE GROUP” (FMC Corporation, priority 2021, published 2024).

Legend:
Type in all cases: in vivo
[1] = tested on: ryegrass, Italian (Italian ryegrass, Lolium multiflorum); assay: Test C postemergence, Italian ryegrass; conditions: visual injury, 0 to 100 scale (0 no effect, 100 complete control)
How it was run: (§1)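 Steps: sow in loam soil blended with sand; treat soil preemergence by directed spray, or treat young plants (2–10 cm, one to two leaves) postemergence; hold in greenhouse 10 or 12 days; rate injury visually relative to untreated controls on a 0–100 scale.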

[2] = tested on: blackgrass (Alopecurus myosuroides); assay: Test C preemergence, blackgrass; conditions: 0 is no effect, 100 is complete control
How it was run: as §1

[3] = tested on: wheat (Triticum aestivum); assay: Test C preemergence, wheat; conditions: 0 is no effect, 100 is complete control
soybean (Glycine max) [4] = assay: Test C preemergence, soybean; conditions: 0 is no effect, 100 is complete control
How it was run: as §1

corn (Zea mays) = assay: Test C postemergence, corn; conditions: visual injury, 0 to 100 scale (0 no effect, 100 complete control)
[5] = tested on: foxtail, giant (giant foxtail, Setaria faberi); assay: Test C preemergence, giant foxtail; conditions: 0 is no effect, 100 is complete control
How it was run: as §1

[6] = tested on: ragweed (common ragweed, Ambrosia artemisiifolia); assay: Test C preemergence, ragweed; conditions: 0 is no effect, 100 is complete control
How it was run: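 Ratings run from 0, meaning no effect, up to 100, meaning complete control, judged by eye against untreated plants. Treatment was a directed soil spray before emergence or a postemergence spray on 2–10 cm seedlings, with evaluation 10 or 12 days later.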

soybean (Glycine max) [7] = assay: Test C postemergence, soybean; conditions: visual injury, 0 to 100 scale (0 no effect, 100 complete control)

Structure (SMILES)	Ryegrass, Italian plant response rating ([1]; 31 g ai/ha Postemergence)	Ryegrass, Italian plant response rating ([1]; 125 g ai/ha Postemergence)	Plant response rating (0 to 100 scale), Blackgrass ([2]; 31 g ai/ha Preemergence)	Plant response rating (0 to 100 scale), Blackgrass ([2]; 125 g ai/ha Preemergence)	Plant response rating (0 to 100 scale), Wheat ([3]; 31 g ai/ha Preemergence)	Plant response rating (0 to 100 scale), Wheat ([3]; 125 g ai/ha Preemergence)	Plant response rating (0 to 100 scale), Soybean (soybean (Glycine max) [4]; 31 g ai/ha Preemergence)	Plant response rating (0 to 100 scale), Soybean (soybean (Glycine max) [4]; 125 g ai/ha Preemergence)	Corn plant response rating (corn (Zea mays); 31 g ai/ha Postemergence)	Corn plant response rating (corn (Zea mays); 125 g ai/ha Postemergence)	Plant response rating (0 to 100 scale), Foxtail, Giant ([5]; 31 g ai/ha Preemergence)	Plant response rating (0 to 100 scale), Foxtail, Giant ([5]; 125 g ai/ha Preemergence)	Plant response rating (0 to 100 scale), Ragweed ([6]; 31 g ai/ha Preemergence)	Plant response rating (0 to 100 scale), Ragweed ([6]; 125 g ai/ha Preemergence)	Soybean plant response rating (soybean (Glycine max) [7]; 31 g ai/ha Postemergence)	Soybean plant response rating (soybean (Glycine max) [7]; 125 g ai/ha Postemergence)
Cc1cc(C)c(N2CCC(OCC3CCCO3)C2=O)cc1NS(=O)(=O)C(F)(F)F (stereo not shown) [Compound 42]	20	70	20	70	30	90	0	90	20	90	20	100	10	60	70	80
Cc1cc(C)c(N2CCC(OCC3CCC3)C2=O)cc1NS(=O)(=O)C(F)(F)F (stereo not shown) [Compound 43]	30	70	40	50	20	100	10	90	40	90	30	100	10	60	80	90
Cc1c(NS(=O)(=O)C(F)(F)F)cc(N2CCC(OC3CCC3)C2=O)c(C)c1C (stereo not shown) [Compound 45]	0	50	60	90	60	100	50	100	20	90	100	100	80	100	80	100
Cc1cc(C)c(N2CCC(OCC3CCCC3)C2=O)cc1NS(=O)(=O)C(F)(F)F (stereo not shown) [Compound 57]	20	60	40	80	20	80	70	90	0	40	80	100	0	80	80	100
C#CC(C)OC1CCN(c2cc(NS(=O)(=O)C(F)(F)F)c(C)cc2C)C1=O (stereo not shown) [Compound 58]	60	70	80	100	90	100	100	100	60	90	100	100	80	90	60	90
C=C(C)COC1CCN(c2cc(NS(=O)(=O)C(F)(F)F)c(C)cc2C)C1=O (stereo not shown) [Compound 59]	10	70	70	90	40	100	60	90	20	90	100	100	50	70	60	80
CC#CCOC1CCN(c2cc(NS(=O)(=O)C(F)(F)F)c(C)cc2C)C1=O (stereo not shown) [Compound 60]	50	70	80	90	40	100	50	90	90	100	100	100	90	100	80	100
